# Legend:
# [1] = target: T1, human α1G T-type channels (Homo sapiens, UniProt O43497); assay: T-type calcium channel block, whole cell patch clamp in HEK cells; assay type: cell-based; conditions: mainly non-inactivated protocol
# T1 construct: expressed in transfected cells; host or cells: HEK 293
# Method: (§1) T-type calcium channel blocking activity was assayed in human embryonic kidney cells, HEK 293, stably transfected with the T-type calcium channel subunits. Briefly, cells were cultured in Dulbecco's modified eagle medium (DMEM) supplemented with 10% fetal bovine serum, 200 U/ml penicillin and 0.2 mg/ml streptomycin at 37° C. with 5% CO2. At 85% confluency cells were split with 0.25% trypsin/1 mM EDTA and plated at 10% confluency on glass coverslips. At 12 hours the medium was replaced and the cells stably transfected using a standard calcium phosphate protocol and the appropriate calcium channel cDNA's. Fresh DMEM was supplied and the cells transferred to 28° C./5% CO2. Cells were incubated for 1 to 2 days prior to whole cell recording.
# (§2) Standard patch-clamp techniques were employed to identify blockers of T-type currents. Briefly, previously described HEK cell lines stably expressing human α1G, α1H and α1I T-type channels were used for all the recordings (passage #: 4-20, 37° C., 5% CO2). Whole cell patch clamp experiments were performed using an Axopatch 200B amplifier (Axon Instruments, Burlingame, Calif.) linked to a personal computer equipped with pCLAMP software. Data were analyzed using Clampfit (Axon Instruments) and SigmaPlot 4.0 (Jandel Scientific). To obtain T-type currents, plastic dishes containing semi-confluent cells were positioned on the stage of a ZEISS AXIOVERT S100 microscope after replacing the culture medium with external solution (see below). Whole-cell patches were obtained using pipettes (borosilicate glass with filament, O.D.: 1.5 mm, I.D.: 0.86 mm, 10 cm length), fabricated on a SUTTER P-97 puller with resistance values of ˜5 MΩ (see below for internal solution).
# (§3) T-type currents were reliably obtained by using two voltage protocols: • (1) “non-inactivating”, and • (2) “inactivation”
# (§4) In the non-inactivating protocol, the holding potential is set at −110 mV and with a pre-pulse at −100 mV for 1 second prior to the test pulse at −40 mV for 50 ms. In the inactivation protocol, the pre-pulse is at approximately −85 mV for 1 second, which inactivates about 15% of the T-type channels.
# (§5) Test compounds were dissolved in external solution, 0.1-0.01% DMSO. After 10 min rest, they were applied by gravity close to the cell using a WPI microfil tubing. The “non-inactivated” pre-pulse was used to examine the resting block of a compound. The “inactivated” protocol was employed to study voltage-dependent block. However, the initial data shown below were mainly obtained using the non-inactivated protocol only. Kd values are shown for various compounds of the invention in Table 4 measured at 1 μM for the drug of interest except for compound 18 which was measured at 200 nM.
# [2] = target: T2, human α1H T-type channels (Homo sapiens, UniProt O95180); assay: as above; assay type: cell-based; conditions: mainly non-inactivated protocol
# T2 construct: expressed in transfected cells; host or cells: HEK 293
# Method: as §1, §2, §3, §4, §5
# [3] = target: T3, human α1I T-type channels (Homo sapiens, UniProt Q9P0X4); assay: as above; assay type: cell-based; conditions: mainly non-inactivated protocol
# T3 construct: expressed in transfected cells; host or cells: HEK 293
# Method: as §1, §2, §3, §4, §5
# [4] = test system: T-type over L-type channels; conditions: cited from earlier work
# [5] = spinal nerve ligation model of neuropathic pain in rats; cited from earlier work
# T1 sequence (O43497 whole entry): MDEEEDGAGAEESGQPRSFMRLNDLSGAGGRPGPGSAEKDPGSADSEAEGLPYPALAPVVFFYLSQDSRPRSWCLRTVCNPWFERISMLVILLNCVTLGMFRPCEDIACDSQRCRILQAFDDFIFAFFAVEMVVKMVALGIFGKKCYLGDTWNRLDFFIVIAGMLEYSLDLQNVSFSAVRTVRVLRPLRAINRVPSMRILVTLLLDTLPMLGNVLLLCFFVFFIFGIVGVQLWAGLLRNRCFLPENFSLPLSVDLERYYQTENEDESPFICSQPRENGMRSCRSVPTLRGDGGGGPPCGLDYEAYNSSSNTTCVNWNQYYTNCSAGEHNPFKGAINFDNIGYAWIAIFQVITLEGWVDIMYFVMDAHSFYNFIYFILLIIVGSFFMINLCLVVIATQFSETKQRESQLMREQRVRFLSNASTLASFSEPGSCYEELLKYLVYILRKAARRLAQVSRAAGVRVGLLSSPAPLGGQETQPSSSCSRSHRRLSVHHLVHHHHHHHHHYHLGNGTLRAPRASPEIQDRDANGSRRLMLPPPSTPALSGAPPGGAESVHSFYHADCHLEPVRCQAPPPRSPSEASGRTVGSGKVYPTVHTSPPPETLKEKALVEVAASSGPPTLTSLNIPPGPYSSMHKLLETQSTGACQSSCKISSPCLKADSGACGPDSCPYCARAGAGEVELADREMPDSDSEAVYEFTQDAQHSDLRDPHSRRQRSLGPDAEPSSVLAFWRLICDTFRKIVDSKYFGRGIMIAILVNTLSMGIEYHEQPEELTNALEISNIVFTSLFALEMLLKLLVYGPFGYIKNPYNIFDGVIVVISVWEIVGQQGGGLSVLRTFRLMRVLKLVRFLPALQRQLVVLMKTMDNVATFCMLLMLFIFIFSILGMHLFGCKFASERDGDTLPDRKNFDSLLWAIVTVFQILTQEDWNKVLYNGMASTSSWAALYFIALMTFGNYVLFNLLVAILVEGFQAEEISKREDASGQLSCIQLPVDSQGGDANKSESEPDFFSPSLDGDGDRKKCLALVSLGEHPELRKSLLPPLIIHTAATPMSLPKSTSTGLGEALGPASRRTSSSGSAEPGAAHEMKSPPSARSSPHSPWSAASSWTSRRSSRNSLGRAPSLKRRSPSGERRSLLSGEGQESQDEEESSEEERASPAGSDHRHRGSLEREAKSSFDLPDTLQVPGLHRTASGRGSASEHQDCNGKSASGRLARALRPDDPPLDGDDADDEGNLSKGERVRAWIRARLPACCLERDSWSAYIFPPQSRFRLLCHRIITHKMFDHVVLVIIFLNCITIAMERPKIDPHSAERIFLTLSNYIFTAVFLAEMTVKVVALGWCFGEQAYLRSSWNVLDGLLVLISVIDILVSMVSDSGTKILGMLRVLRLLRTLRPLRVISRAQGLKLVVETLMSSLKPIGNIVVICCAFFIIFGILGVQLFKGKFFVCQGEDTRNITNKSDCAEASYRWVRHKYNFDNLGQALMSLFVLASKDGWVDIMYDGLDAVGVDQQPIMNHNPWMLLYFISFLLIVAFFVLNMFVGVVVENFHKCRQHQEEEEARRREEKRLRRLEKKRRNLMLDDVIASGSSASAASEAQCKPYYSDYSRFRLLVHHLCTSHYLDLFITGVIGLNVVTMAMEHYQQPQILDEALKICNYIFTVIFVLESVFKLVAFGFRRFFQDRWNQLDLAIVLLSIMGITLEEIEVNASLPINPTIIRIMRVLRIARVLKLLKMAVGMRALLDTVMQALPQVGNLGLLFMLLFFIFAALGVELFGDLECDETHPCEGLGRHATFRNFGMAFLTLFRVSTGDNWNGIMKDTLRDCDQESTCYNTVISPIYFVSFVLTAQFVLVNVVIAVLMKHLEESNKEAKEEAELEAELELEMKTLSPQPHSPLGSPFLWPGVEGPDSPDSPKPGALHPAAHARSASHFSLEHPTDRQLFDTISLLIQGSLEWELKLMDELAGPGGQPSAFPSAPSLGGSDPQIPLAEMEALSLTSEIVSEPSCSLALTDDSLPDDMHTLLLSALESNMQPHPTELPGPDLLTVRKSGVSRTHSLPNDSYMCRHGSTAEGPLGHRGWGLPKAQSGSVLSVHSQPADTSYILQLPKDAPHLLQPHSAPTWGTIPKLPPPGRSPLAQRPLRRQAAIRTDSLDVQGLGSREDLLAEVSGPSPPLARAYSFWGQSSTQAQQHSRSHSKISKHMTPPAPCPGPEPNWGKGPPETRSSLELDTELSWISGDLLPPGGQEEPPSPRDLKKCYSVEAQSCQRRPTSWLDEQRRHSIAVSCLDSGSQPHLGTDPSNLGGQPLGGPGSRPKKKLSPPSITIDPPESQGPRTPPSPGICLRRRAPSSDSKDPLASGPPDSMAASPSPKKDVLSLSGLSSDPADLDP
# T3 sequence (Q9P0X4 whole entry): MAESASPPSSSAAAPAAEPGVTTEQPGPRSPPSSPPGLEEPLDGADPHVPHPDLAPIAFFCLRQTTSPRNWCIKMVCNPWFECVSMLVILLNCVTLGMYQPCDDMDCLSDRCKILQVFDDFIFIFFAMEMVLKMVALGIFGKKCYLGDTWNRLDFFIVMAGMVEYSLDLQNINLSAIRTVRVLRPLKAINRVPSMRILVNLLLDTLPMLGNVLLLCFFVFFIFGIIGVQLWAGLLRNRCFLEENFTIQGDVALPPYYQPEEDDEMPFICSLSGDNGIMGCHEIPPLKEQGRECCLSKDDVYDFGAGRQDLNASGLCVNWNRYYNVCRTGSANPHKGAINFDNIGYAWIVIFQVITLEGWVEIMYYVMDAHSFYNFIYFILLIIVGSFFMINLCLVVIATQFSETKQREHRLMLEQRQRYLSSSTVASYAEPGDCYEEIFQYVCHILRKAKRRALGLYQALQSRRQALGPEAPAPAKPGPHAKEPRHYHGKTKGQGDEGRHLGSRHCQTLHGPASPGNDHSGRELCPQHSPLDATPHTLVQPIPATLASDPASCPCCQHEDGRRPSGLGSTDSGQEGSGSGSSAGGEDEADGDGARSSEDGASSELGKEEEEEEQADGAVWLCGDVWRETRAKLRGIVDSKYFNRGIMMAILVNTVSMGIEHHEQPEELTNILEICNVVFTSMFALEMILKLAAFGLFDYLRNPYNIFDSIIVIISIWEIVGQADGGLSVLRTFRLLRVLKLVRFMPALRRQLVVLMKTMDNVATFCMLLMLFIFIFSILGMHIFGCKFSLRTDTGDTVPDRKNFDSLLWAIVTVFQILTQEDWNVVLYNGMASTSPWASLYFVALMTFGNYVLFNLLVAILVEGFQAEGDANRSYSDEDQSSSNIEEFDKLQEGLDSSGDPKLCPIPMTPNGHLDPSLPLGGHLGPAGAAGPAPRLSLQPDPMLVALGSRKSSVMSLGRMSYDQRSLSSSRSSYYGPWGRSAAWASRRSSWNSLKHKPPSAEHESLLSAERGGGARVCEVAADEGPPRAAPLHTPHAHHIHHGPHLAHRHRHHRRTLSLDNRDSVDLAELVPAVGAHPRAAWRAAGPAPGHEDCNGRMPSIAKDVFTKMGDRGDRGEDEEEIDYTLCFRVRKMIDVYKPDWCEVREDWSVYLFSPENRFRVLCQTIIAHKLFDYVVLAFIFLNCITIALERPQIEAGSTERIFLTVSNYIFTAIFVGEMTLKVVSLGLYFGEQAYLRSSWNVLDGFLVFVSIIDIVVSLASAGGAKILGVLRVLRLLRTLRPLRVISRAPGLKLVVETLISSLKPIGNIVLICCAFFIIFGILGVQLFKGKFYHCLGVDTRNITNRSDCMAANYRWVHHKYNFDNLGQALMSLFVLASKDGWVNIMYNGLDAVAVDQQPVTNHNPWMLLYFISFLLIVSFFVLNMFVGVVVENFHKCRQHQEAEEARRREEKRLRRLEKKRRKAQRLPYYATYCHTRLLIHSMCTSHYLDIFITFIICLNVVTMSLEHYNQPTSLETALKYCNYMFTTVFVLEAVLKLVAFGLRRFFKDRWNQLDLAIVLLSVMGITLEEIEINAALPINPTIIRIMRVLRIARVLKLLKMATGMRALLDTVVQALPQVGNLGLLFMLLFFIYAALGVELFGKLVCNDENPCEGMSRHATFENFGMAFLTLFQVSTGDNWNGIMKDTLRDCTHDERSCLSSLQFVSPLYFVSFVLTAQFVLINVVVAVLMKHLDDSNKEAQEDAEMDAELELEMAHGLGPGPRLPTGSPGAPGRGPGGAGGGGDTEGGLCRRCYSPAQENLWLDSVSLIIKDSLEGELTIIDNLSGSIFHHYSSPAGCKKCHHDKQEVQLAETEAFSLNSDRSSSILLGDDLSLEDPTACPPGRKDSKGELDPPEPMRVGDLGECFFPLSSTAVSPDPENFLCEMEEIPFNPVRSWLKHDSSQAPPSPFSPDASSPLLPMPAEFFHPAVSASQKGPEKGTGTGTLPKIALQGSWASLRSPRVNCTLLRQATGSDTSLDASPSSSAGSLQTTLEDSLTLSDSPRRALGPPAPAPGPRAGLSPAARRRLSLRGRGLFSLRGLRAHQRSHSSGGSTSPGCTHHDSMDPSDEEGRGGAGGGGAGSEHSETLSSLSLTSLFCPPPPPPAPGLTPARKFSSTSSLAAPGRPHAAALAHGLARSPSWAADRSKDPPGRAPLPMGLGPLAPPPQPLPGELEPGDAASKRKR
SMILES,Kd ([1]; measured at 1 μM drug) [nM],Kd ([2]; measured at 1 μM drug) [nM],Kd ([3]; measured at 1 μM drug) [nM],also measured
COCC(=O)O[C@]1(CCN(C)CCCc2nc3ccccc3[nH]2)CCc2cc(F)ccc2[C@@H]1C(C)C [Mibefradil],–,–,–,selective for T-type over L-type channels [4]: 10-30 fold; anti-hyperalgesic activity [5]: anti-hyperalgesic activity
"O=C(/C=C/c1ccc(F)cc1)NC1(C(=O)Nc2cc(C(F)(F)F)cc(C(F)(F)F)c2)CCNCC1 [Compound 32, (E)-N-(3,5-bis(trifluoromethyl)phenyl)-4-(3-(4-fluorophenyl)acrylamido)piperidine-4-carboxamide]",50,420,50,–
CCC1(C)CC(=O)NC1=O (centres unmarked) [ethosuximide],–,–,–,anti-hyperalgesic activity [5]: anti-hyperalgesic activity
"O=C(/C=C/c1ccc(F)c(Br)c1)N[C@H](C(=O)NCCc1c[nH]c2ccc(F)cc12)c1ccccc1 [Compound 17, (S,E)-3-(3-bromo-4-fluorophenyl)-N-(2-(2-(5-fluoro-1H-indol-3-yl)ethylamino)-2-oxo-1-phenylethyl)acrylamide]",100,940,170,–
"O=C(/C=C/c1ccc(F)c(Br)c1)N[C@@H](C(=O)NCCc1c[nH]c2ccc(F)cc12)c1ccccc1 [Compound 18, (R,E)-3-(3-bromo-4-fluorophenyl)-N-(2-(2-(5-fluoro-1H-indol-3-yl)ethylamino)-2-oxo-1-phenylethyl)acrylamide]",–,–,–,Kd ([1]; measured at 200 nM drug): 70 nM; Kd ([2]; measured at 200 nM drug): 690 nM; Kd ([3]; measured at 200 nM drug): 380 nM
"O=C(/C=C/c1ccc(F)cc1)NC1(C(=O)Nc2cc(Cl)cc(Cl)c2)CCNCC1 [Compound 44, (E)-N-(3,5-dichlorophenyl)-4-(3-(4-fluorophenyl)acrylamido)piperidine-4-carboxamide]",320,1610,–,–
"O=C(/C=C\c1ccccc1)NC1(C(=O)Nc2cc(C(F)(F)F)cc(C(F)(F)F)c2)CCNCC1 [Compound 40, (Z)-N-(3,5-bis(trifluoromethyl)phenyl)-4-(3-phenylacrylamido)piperidine-4-carboxamide]",130,2420,–,–
"CC(C)(NC(=O)/C=C/c1ccc(F)c(Br)c1)C(=O)NCCc1c[nH]c2ccc(F)cc12 [Compound 15, (E)-3-(3-bromo-4-fluorophenyl)-N-(1-(2-(5-fluoro-1H-indol-3-yl)ethylamino)-2-methyl-1-oxopropan-2-yl)acrylamide]",360,–,480,–

# More lines, main results first:
Kd ([1]; measured at 1 μM drug) [nM],Kd ([2]; measured at 1 μM drug) [nM],Kd ([3]; measured at 1 μM drug) [nM],SMILES,also measured
150,840,210,"O=C(/C=C/c1ccc(F)c(Br)c1)NC1(C(=O)NCCc2c[nH]c3ccc(F)cc23)CCN(C(=O)C(F)(F)F)CC1 [Compound 27, (E)-4-(3-(3-bromo-4-fluorophenyl)acrylamido)-N-(2-(5-fluoro-1H-indol-3-yl)ethyl)-1-(2,2,2-trifluoroacetyl) piperidine-4-carboxamide]",–
120,1800,280,"O=C(/C=C/c1ccc(F)c(Br)c1)NC1(C(=O)NCCc2c[nH]c3ccc(F)cc23)CCCCC1 [Compound 12, (E)-1-(3-(3-bromo-4-fluorophenyl)acrylamido)-N-(2-(5-fluoro-1H-indol-3-yl)ethyl)cyclohexanecarboxamide]",–
220,470,180,O=C(/C=C/c1ccc(F)c(Br)c1)NC1(C(=O)NCCc2c[nH]c3ccc(F)cc23)CCNCC1 [Compound 1],–
130,137000,110,"O=C(/C=C/c1ccc(F)c(F)c1)NC1(C(=O)NCCc2c[nH]c3ccc(F)cc23)CCNCC1 [Compound 7, (E)-4-(3-(3,4-difluorophenyl)acrylamido)-N-(2-(5-fluoro-1H-indol-3-yl)ethyl)piperidine-4-carboxamide]",–
140,1790,390,"O=C(/C=C/c1ccc(F)c(Br)c1)NC1(C(=O)NCCc2c[nH]c3ccc(F)cc23)CCCC1 [Compound 13, (E)-1-(3-(3-bromo-4-fluorophenyl)acrylamido)-N-(2-(5-fluoro-1H-indol-3-yl)ethyl)cyclopentanecarboxamide]",–
180,1450,440,"NCC(=O)N1CCC(NC(=O)/C=C/c2ccc(F)c(Br)c2)(C(=O)NCCc2c[nH]c3ccc(F)cc23)CC1 [Compound 24, (E)-1-(2-aminoacetyl)-4-(3-(3-bromo-4-fluorophenyl)acrylamido)-N-(2-(5-fluoro-1H-indol-3-yl)ethyl)piperidine-4-carboxamide]",–
100,490,330,CN1CCC(NC(=O)/C=C/c2ccc(F)c(Br)c2)(C(=O)NCCc2c[nH]c3ccc(F)cc23)CC1 [Compound 22],–
790,–,870,"COC(=O)N1CCC(NC(=O)/C=C/c2ccc(F)c(Br)c2)(C(=O)NCCc2c[nH]c3ccc(F)cc23)CC1 [Compound 23, (E)-methyl 4-(3-(3-bromo-4-fluorophenyl)acrylamido)-4-(2-(5-fluoro-1H-indol-3-yl)ethylcarbamoyl)piperidine-1-carboxylate]",–
290,12000,460,"O=C(/C=C/c1ccc(F)c(Br)c1)NC1(C(=O)NCCc2c[nH]c3ccc(F)cc23)CC1 [Compound 14, (E)-1-(3-(3-bromo-4-fluorophenyl)acrylamido)-N-(2-(5-fluoro-1H-indol-3-yl)ethyl)cyclopropanecarboxamide]",–
30,410,30,"O=C(/C=C/c1ccc(F)c(Br)c1)NC1(C(=O)NCCc2c[nH]c3ccccc23)CCNCC1 [Compound 2, (E)-N-(2-(1H-indol-3-yl)ethyl)-4-(3-(3-bromo-4-fluorophenyl)acrylamido)piperidine-4-carboxamide]",–

# Reference: US20080227823A1, “AMIDE DERIVATIVES AS CALCIUM CHANNEL BLOCKERS” (priority 2007, published 2008)
